According to US10738028B2, “Spiro three-membered ring, spiro five-membered ring peptide deformylase inhibitor and use thereof in antibacteria and anti-tumor” (priority 2016, dated 2020):

How the values were obtained:
Assay type in all cases: cell-based
[1] = test system: methicillin-resistant Staphylococcus aureus (MRSA); experiment: MIC, two-fold agar dilution (CLSI), clinical isolates; details: for Anti-bacterial activity (MIC), strain MRSA 15-1: clinical isolate MRSA 15-1; for Anti-bacterial activity (MIC), strain MRSA 15-2: clinical isolate MRSA 15-2; for Anti-bacterial activity (MIC), strain MRSA 15-3: clinical isolate MRSA 15-3; for Anti-bacterial activity (MIC), strain MRSA 15-4: clinical isolate MRSA 15-4
Text: (§1) 1. The invention adopts the two-fold agar dilution method recommended by the operating procedure of antimicrobial susceptibility testing set by American Clinical and Laboratory Standards Institute (CLSI) to determine the Minimum Inhibitory Concentration (MIC) of the test samples against the tested strains.

[2] = test system: methicillin-sensitive Staphylococcus epidermidis (MSSE); experiment: as above; details: for Anti-bacterial activity (MIC), strain MSSE 15-3: clinical isolate MSSE 15-3; for Anti-bacterial activity (MIC), strain MSSE 15-4: clinical isolate MSSE 15-4; for Anti-bacterial activity (MIC), strain MSSE 15-5: clinical isolate MSSE 15-5; for Anti-bacterial activity (MIC), strain MSSE 15-6: clinical isolate MSSE 15-6
Text: as §1

[3] = test system: Streptococcus pneoumoniae (SPN); experiment: as above; details: for Anti-bacterial activity (MIC), strain SPN 16-2: clinical isolate SPN 16-2; for Anti-bacterial activity (MIC), strain SPN 16-4: clinical isolate SPN 16-4
Text: as §1

[4] = test system: Escherichia coli (including ESBLs, non-ESBLs); experiment: as above; details: for Anti-bacterial activity (MIC), strain ECO+ 15-1: clinical isolate ECO+ 15-1; for Anti-bacterial activity (MIC), strain ECO+ 15-2: clinical isolate ECO+ 15-2; for Anti-bacterial activity (MIC), strain ECO+ 15-3: clinical isolate ECO+ 15-3; for Anti-bacterial activity (MIC), strain ECO+ 15-4: clinical isolate ECO+ 15-4; for Anti-bacterial activity (MIC), strain ECO− 15-1: clinical isolate ECO− 15-1; for Anti-bacterial activity (MIC), strain ECO− 15-2: clinical isolate ECO− 15-2; for Anti-bacterial activity (MIC), strain ECO− 15-3: clinical isolate ECO− 15-3; for Anti-bacterial activity (MIC), strain ECO− 15-4: clinical isolate ECO− 15-4
Text: as §1

[5] = test system: Enterococcus faecium (EFM); experiment: as above; details: for Anti-bacterial activity (MIC), strain EFM 15-1: clinical isolate EFM 15-1; for Anti-bacterial activity (MIC), strain EFM 15-2: clinical isolate EFM 15-2; for Anti-bacterial activity (MIC), strain EFM 15-3: clinical isolate EFM 15-3; for Anti-bacterial activity (MIC), strain EFM 15-4: clinical isolate EFM 15-4; for Anti-bacterial activity (MIC), strain EFM 15-5: clinical isolate EFM 15-5; for Anti-bacterial activity (MIC), strain EFM 15-6: clinical isolate EFM 15-6
Text: as §1

[6] = test system: Enterococcus faecalis (EFA); experiment: as above; details: for Anti-bacterial activity (MIC), strain EFA 15-1: clinical isolate EFA 15-1; for Anti-bacterial activity (MIC), strain EFA 15-2: clinical isolate EFA 15-2; for Anti-bacterial activity (MIC), strain EFA 15-3: clinical isolate EFA 15-3; for Anti-bacterial activity (MIC), strain EFA 15-4: clinical isolate EFA 15-4; for Anti-bacterial activity (MIC), strain EFA 15-5: clinical isolate EFA 15-5; for Anti-bacterial activity (MIC), strain EFA 15-6: clinical isolate EFA 15-6; for Anti-bacterial activity (MIC), strain EFA 15-9: clinical isolate EFA 15-9
Text: as §1

[7] = test system: Moraxella catarrhalis (BCA); experiment: as above; details: for Anti-bacterial activity (MIC), strain BCA 14-1: clinical isolate BCA 14-1; for Anti-bacterial activity (MIC), strain BCA 14-4: clinical isolate BCA 14-4; for Anti-bacterial activity (MIC), strain BCA 14-5: clinical isolate BCA 14-5; for Anti-bacterial activity (MIC), strain BCA 14-6: clinical isolate BCA 14-6; for Anti-bacterial activity (MIC), strain BCA 14-7: clinical isolate BCA 14-7; for Anti-bacterial activity (MIC), strain BCA 14-8: clinical isolate BCA 14-8; for Anti-bacterial activity (MIC), strain BCA 14-10: clinical isolate BCA 14-10
Text: as §1

[8] = test system: methicillin-resistant Staphylococcus epidermidis (MRSE); experiment: as above; details: for Anti-bacterial activity (MIC), strain MRSE 15-1: clinical isolate MRSE 15-1; for Anti-bacterial activity (MIC), strain MRSE 15-2: clinical isolate MRSE 15-2; for Anti-bacterial activity (MIC), strain MRSE 15-3: clinical isolate MRSE 15-3; for Anti-bacterial activity (MIC), strain MRSE 15-7: clinical isolate MRSE 15-7
Text: as §1

[9] = test system: methicillin-sensitive Staphylococcus aureus (MSSA); experiment: as above; details: for Anti-bacterial activity (MIC), strain MSSA 15-3: clinical isolate MSSA 15-3; for Anti-bacterial activity (MIC), strain MSSA 15-4: clinical isolate MSSA 15-4; for Anti-bacterial activity (MIC), strain MSSA 15-5: clinical isolate MSSA 15-5; for Anti-bacterial activity (MIC), strain MSSA 15-6: clinical isolate MSSA 15-6
Text: as §1

[10] = test system: HCT-116 colorectal cancer cell line; experiment: CCK-8 proliferation inhibition; details: Homo sapiens, HCT-116, 72 h, concentration of 30 μM; 72 hours; CCK-8; read-out: HCT116 inhibition rate/%
How it was run: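 HCT-116 cells, seeded at 2000 cells/well in McCoy's 5A with 10% newborn bovine serum, were cultured overnight at 37° C., 5% CO2, then exposed to compound dilutions in medium for 72 hours. Viability was read with 1:10 diluted CCK-8; controls received 1‰ DMSO.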

CCCC[C@H](CC(=O)NO)C(=O)N1CC2(CC2)C[C@H]1C(=O)Nc1ccncn1 [Example 45]
Anti-bacterial activity (MIC), strain MRSA 15-1 [1]: 0.5 µg/mL | Anti-bacterial activity (MIC), strain MRSA 15-2 [1]: 1 µg/mL | Anti-bacterial activity (MIC), strain MRSA 15-3 [1]: 1 µg/mL | Anti-bacterial activity (MIC), strain MRSA 15-4 [1]: 1 µg/mL | Anti-bacterial activity (MIC), strain MSSE 15-3 [2]: 1 µg/mL | Anti-bacterial activity (MIC), strain MSSE 15-4 [2]: 1 µg/mL | Anti-bacterial activity (MIC), strain MSSE 15-5 [2]: 1 µg/mL | Anti-bacterial activity (MIC), strain MSSE 15-6 [2]: 1 µg/mL | Anti-bacterial activity (MIC), strain SPN 16-2 [3]: 0.5 µg/mL | Anti-bacterial activity (MIC), strain SPN 16-4 [3]: 0.5 µg/mL | Anti-bacterial activity (MIC), strain ECO+ 15-1 [4]: 32 µg/mL | Anti-bacterial activity (MIC), strain ECO+ 15-2 [4]: > 32 µg/mL | Anti-bacterial activity (MIC), strain ECO+ 15-3 [4]: > 32 µg/mL | Anti-bacterial activity (MIC), strain ECO+ 15-4 [4]: 1 µg/mL | Anti-bacterial activity (MIC), strain ECO− 15-1 [4]: 32 µg/mL | Anti-bacterial activity (MIC), strain ECO− 15-2 [4]: > 32 µg/mL | Anti-bacterial activity (MIC), strain ECO− 15-3 [4]: > 32 µg/mL | Anti-bacterial activity (MIC), strain ECO− 15-4 [4]: > 32 µg/mL | Anti-bacterial activity (MIC), strain EFM 15-1 [5]: > 32 µg/mL | Anti-bacterial activity (MIC), strain EFM 15-2 [5]: > 32 µg/mL | Anti-bacterial activity (MIC), strain EFM 15-3 [5]: > 32 µg/mL | Anti-bacterial activity (MIC), strain EFM 15-4 [5]: > 32 µg/mL | Anti-bacterial activity (MIC), strain EFM 15-5 [5]: 0.5 µg/mL | Anti-bacterial activity (MIC), strain EFM 15-6 [5]: 0.5 µg/mL | Anti-bacterial activity (MIC), strain EFA 15-1 [6]: > 32 µg/mL | Anti-bacterial activity (MIC), strain EFA 15-2 [6]: > 32 µg/mL | Anti-bacterial activity (MIC), strain EFA 15-3 [6]: > 32 µg/mL | Anti-bacterial activity (MIC), strain EFA 15-4 [6]: > 32 µg/mL | Anti-bacterial activity (MIC), strain EFA 15-5 [6]: > 32 µg/mL | Anti-bacterial activity (MIC), strain EFA 15-6 [6]: > 32 µg/mL | Anti-bacterial activity (MIC), strain EFA 15-9 [6]: 16 µg/mL | Anti-bacterial activity (MIC), strain BCA 14-1 [7]: 1 µg/mL | Anti-bacterial activity (MIC), strain BCA 14-4 [7]: 1 µg/mL | Anti-bacterial activity (MIC), strain BCA 14-5 [7]: 0.5 µg/mL | Anti-bacterial activity (MIC), strain BCA 14-6 [7]: 0.5 µg/mL | Anti-bacterial activity (MIC), strain BCA 14-7 [7]: 1 µg/mL | Anti-bacterial activity (MIC), strain BCA 14-8 [7]: 1 µg/mL | Anti-bacterial activity (MIC), strain BCA 14-10 [7]: 1 µg/mL | Anti-bacterial activity (MIC), strain MRSE 15-1 [8]: 1 µg/mL | Anti-bacterial activity (MIC), strain MRSE 15-2 [8]: 1 µg/mL | Anti-bacterial activity (MIC), strain MRSE 15-3 [8]: 1 µg/mL | Anti-bacterial activity (MIC), strain MRSE 15-7 [8]: 1 µg/mL | Anti-bacterial activity (MIC), strain MSSA 15-3 [9]: 0.5 µg/mL | Anti-bacterial activity (MIC), strain MSSA 15-4 [9]: 1 µg/mL | Anti-bacterial activity (MIC), strain MSSA 15-5 [9]: 1 µg/mL | Anti-bacterial activity (MIC), strain MSSA 15-6 [9]: > 32 µg/mL | inhibition at 30 µM [10]: 25%

CCCC[C@H](CC(=O)NO)C(=O)N1CC2(CC2)C[C@H]1C(=O)Nc1ncc(C)s1 [Example 47, (S)-5-((R)-2-(2-(hydroxyamino)-2-oxoethyl)hexanoyl)-N-(5-methylthiazol-2-yl)-5-azaspiro[2.4]heptane-6-amide]
Anti-bacterial activity (MIC), strain MRSA 15-1 [1]: 0.25 µg/mL | Anti-bacterial activity (MIC), strain MRSA 15-2 [1]: 0.5 µg/mL | Anti-bacterial activity (MIC), strain MRSA 15-3 [1]: 0.25 µg/mL | Anti-bacterial activity (MIC), strain MRSA 15-4 [1]: 0.5 µg/mL | Anti-bacterial activity (MIC), strain MSSE 15-3 [2]: 0.5 µg/mL | Anti-bacterial activity (MIC), strain MSSE 15-4 [2]: 0.5 µg/mL | Anti-bacterial activity (MIC), strain MSSE 15-5 [2]: 0.5 µg/mL | Anti-bacterial activity (MIC), strain MSSE 15-6 [2]: 0.5 µg/mL | Anti-bacterial activity (MIC), strain SPN 16-2 [3]: 0.5 µg/mL | Anti-bacterial activity (MIC), strain SPN 16-4 [3]: 0.5 µg/mL | Anti-bacterial activity (MIC), strain ECO+ 15-1 [4]: 32 µg/mL | Anti-bacterial activity (MIC), strain ECO+ 15-2 [4]: > 32 µg/mL | Anti-bacterial activity (MIC), strain ECO+ 15-3 [4]: > 32 µg/mL | Anti-bacterial activity (MIC), strain ECO+ 15-4 [4]: 0.5 µg/mL | Anti-bacterial activity (MIC), strain ECO− 15-1 [4]: > 32 µg/mL | Anti-bacterial activity (MIC), strain ECO− 15-2 [4]: > 32 µg/mL | Anti-bacterial activity (MIC), strain ECO− 15-3 [4]: > 32 µg/mL | Anti-bacterial activity (MIC), strain ECO− 15-4 [4]: > 32 µg/mL | Anti-bacterial activity (MIC), strain EFM 15-1 [5]: > 32 µg/mL | Anti-bacterial activity (MIC), strain EFM 15-2 [5]: > 32 µg/mL | Anti-bacterial activity (MIC), strain EFM 15-3 [5]: > 32 µg/mL | Anti-bacterial activity (MIC), strain EFM 15-4 [5]: > 32 µg/mL | Anti-bacterial activity (MIC), strain EFM 15-5 [5]: 0.25 µg/mL | Anti-bacterial activity (MIC), strain EFM 15-6 [5]: 1 µg/mL | Anti-bacterial activity (MIC), strain EFA 15-1 [6]: > 32 µg/mL | Anti-bacterial activity (MIC), strain EFA 15-2 [6]: > 32 µg/mL | Anti-bacterial activity (MIC), strain EFA 15-3 [6]: > 32 µg/mL | Anti-bacterial activity (MIC), strain EFA 15-4 [6]: > 32 µg/mL | Anti-bacterial activity (MIC), strain EFA 15-5 [6]: > 32 µg/mL | Anti-bacterial activity (MIC), strain EFA 15-6 [6]: > 32 µg/mL | Anti-bacterial activity (MIC), strain EFA 15-9 [6]: 4 µg/mL | Anti-bacterial activity (MIC), strain BCA 14-1 [7]: 4 µg/mL | Anti-bacterial activity (MIC), strain BCA 14-4 [7]: 4 µg/mL | Anti-bacterial activity (MIC), strain BCA 14-5 [7]: 0.25 µg/mL | Anti-bacterial activity (MIC), strain BCA 14-6 [7]: 2 µg/mL | Anti-bacterial activity (MIC), strain BCA 14-7 [7]: 2 µg/mL | Anti-bacterial activity (MIC), strain BCA 14-8 [7]: 1 µg/mL | Anti-bacterial activity (MIC), strain BCA 14-10 [7]: 0.5 µg/mL | Anti-bacterial activity (MIC), strain MRSE 15-1 [8]: 0.5 µg/mL | Anti-bacterial activity (MIC), strain MRSE 15-2 [8]: 0.5 µg/mL | Anti-bacterial activity (MIC), strain MRSE 15-3 [8]: 0.5 µg/mL | Anti-bacterial activity (MIC), strain MRSE 15-7 [8]: 0.5 µg/mL | Anti-bacterial activity (MIC), strain MSSA 15-3 [9]: 0.5 µg/mL | Anti-bacterial activity (MIC), strain MSSA 15-4 [9]: 0.5 µg/mL | Anti-bacterial activity (MIC), strain MSSA 15-5 [9]: 0.5 µg/mL | Anti-bacterial activity (MIC), strain MSSA 15-6 [9]: > 32 µg/mL | inhibition at 30 µM [10]: 20%
